ChEMBL document CHEMBL1146907, “New, potent P1/P2-morpholinone-based HIV-protease inhibitors” (Bioorg Med Chem Lett, 2006)

target: Human immunodeficiency virus type 1 protease (Human immunodeficiency virus 1, UniProt Q72874); experiment: Inhibition of HIV protease

SMILES | Ki
COc1ccc(S(=O)(=O)N(CC2CCCC2)C[C@@H](O)CN2C(=O)[C@@H](Cc3ccccc3)OC[C@@H]2Cc2ccccc2)cc1 | 35 nM
COc1ccc(S(=O)(=O)N(CC2CCCC2)C[C@@H](O)CN2C(=O)[C@H](C)OC[C@@H]2Cc2ccccc2)cc1 | 38 nM
COc1ccc(S(=O)(=O)N(CC2CCCC2)C[C@@H](O)CN2C(=O)[C@@H](CCC#N)OC[C@@H]2Cc2ccccc2)cc1 | 11 nM
COc1ccc(S(=O)(=O)N(CC2CCCC2)N2C(=O)C3(CCOCC3)OC[C@@H]2Cc2ccccc2)cc1 | 23 nM
C=CC[C@@H]1OC[C@H](Cc2ccccc2)N(C[C@H](O)CN(CC2CCCC2)S(=O)(=O)c2ccc(OC)cc2)C1=O | 270 nM
COc1ccc(S(=O)(=O)N(CC2CCCC2)C[C@@H](O)CN2C(=O)[C@H](Cc3cccc(C#N)c3)OC[C@@H]2Cc2ccccc2)cc1 | 490 nM
COc1ccc(S(=O)(=O)N(CC2CCCC2)C[C@@H](O)CN2C(=O)[C@@H](Cc3cccc(C#N)c3)OC[C@@H]2Cc2ccccc2)cc1 | 55 nM
COc1ccc(S(=O)(=O)N(CC2CCCC2)C[C@@H](O)CN2C(=O)[C@@H](CCN)OC[C@@H]2Cc2ccccc2)cc1 | 600 nM
C=CC[C@H]1OC[C@H](Cc2ccccc2)N(C[C@H](O)CN(CC2CCCC2)S(=O)(=O)c2ccc(OC)cc2)C1=O | 2 nM
COc1ccc(S(=O)(=O)N(CC2CCCC2)C[C@@H](O)CN2C(=O)[C@@H](CCCN)OC[C@@H]2Cc2ccccc2)cc1 | 5800 nM
COc1ccc(S(=O)(=O)N(CC2CCCC2)C[C@@H](O)CN2C(=O)[C@@H](CCO)OC[C@@H]2Cc2ccccc2)cc1 | 30 nM
COc1ccc(S(=O)(=O)N(CC2CCCC2)C[C@@H](O)CN2C(=O)C3(CC3)OC[C@@H]2Cc2ccccc2)cc1 | 9 nM
COc1ccc(S(=O)(=O)N(CC2CCCC2)C[C@@H](O)CN2C(=O)[C@@H](CCN=[N+]=[N-])OC[C@@H]2Cc2ccccc2)cc1 | 81 nM
COc1ccc(S(=O)(=O)N(CC2CCCC2)C[C@@H](O)CN2C(=O)[C@@H](CCC(N)=O)OC[C@@H]2Cc2ccccc2)cc1 | 49 nM
COc1ccc(S(=O)(=O)N(CC2CCCC2)C[C@@H](O)CN2C(=O)C3(CCCCC3)OC[C@@H]2Cc2ccccc2)cc1 | 2 nM
